Values after ≈ are worked out from the molar mass of the structure shown. Active and inactive are the calls of the source. The rule behind the calls is not given here.

Series [1] is described as follows: AUC (0 to infinity) in Sprague-Dawley rat at 2 mg/kg, iv measured upto 48 hrs by LC-MS/MS analysis. Also on record: route intravenous, dose 2 mg/kg, time <=48. In kind it is ADME, organism-based. Particulars: in vivo.
Series [2] concerns the target T1, Protein deacetylase HDAC6 (Homo sapiens, UniProt Q9UBN7).
T1 sequence (Q9UBN7 whole entry): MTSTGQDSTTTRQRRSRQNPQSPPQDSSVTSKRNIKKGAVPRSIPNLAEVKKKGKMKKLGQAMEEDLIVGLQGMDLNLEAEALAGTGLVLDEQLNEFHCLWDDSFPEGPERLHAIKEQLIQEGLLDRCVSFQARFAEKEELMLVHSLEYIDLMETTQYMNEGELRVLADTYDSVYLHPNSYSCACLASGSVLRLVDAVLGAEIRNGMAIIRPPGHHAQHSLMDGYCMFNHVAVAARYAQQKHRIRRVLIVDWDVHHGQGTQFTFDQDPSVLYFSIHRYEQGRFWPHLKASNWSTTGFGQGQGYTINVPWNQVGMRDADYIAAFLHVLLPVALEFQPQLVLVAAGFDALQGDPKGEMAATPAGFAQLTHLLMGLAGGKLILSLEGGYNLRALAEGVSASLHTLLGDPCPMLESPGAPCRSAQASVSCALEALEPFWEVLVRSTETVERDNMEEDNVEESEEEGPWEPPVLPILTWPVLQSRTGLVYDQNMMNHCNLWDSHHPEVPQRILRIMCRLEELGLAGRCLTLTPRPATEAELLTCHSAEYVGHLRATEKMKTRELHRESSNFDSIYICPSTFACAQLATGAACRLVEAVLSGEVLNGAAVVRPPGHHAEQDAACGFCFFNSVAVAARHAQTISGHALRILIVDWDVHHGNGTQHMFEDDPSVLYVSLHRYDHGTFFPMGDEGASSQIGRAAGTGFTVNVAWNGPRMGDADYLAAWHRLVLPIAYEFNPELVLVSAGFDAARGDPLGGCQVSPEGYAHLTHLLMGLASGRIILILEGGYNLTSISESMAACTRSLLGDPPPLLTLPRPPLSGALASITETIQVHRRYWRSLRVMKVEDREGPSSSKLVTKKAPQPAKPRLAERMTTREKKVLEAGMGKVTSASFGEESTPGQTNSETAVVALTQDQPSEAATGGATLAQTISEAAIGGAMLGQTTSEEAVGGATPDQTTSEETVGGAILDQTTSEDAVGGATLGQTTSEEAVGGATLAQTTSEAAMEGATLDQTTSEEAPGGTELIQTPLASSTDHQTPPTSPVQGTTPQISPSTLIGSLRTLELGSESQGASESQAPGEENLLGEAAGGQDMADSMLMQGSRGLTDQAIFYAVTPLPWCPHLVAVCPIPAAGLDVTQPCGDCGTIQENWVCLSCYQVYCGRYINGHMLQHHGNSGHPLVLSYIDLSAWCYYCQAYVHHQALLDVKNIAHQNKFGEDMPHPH
The series can be described thus: Inhibition of recombinant human N-terminal GST tagged HDAC6 expressed in baculovirus infected Sf9 insect cells using Ac-Leu-Gly-Lys (Ac)-AMC as substrate preincubated for 5 mins followed by substrate addition and measured after 30 mins by fluorescence microtiter plate reader assay.

The nature of series [3]: Cytotoxicity against human Jurkat cells assessed as reduction in cell viability incubated for 72 hrs by CCK-8 assay. A general note: Formazan colour is commonly taken as a measure of viable cells.
Series [4] relates to B16-F10. The series can be described thus: Upregulation of acetylated alpha-tubulin expression in mouse B16-F10 cells incubated for 6 hrs by Western blot analysis. In kind it is functional, cell-based. Conditions: dose 0.1-2 µM.
The nature of series [5]: Aqueous solubility of the compound incubated for 24 hrs by HPLC based shake-flask method. Conditions: buffer. The series is classed as physicochemical.
The nature of series [6]: MRT(0 to t) in Sprague-Dawley rat at 10 mg/kg, po measured upto 48 hrs by LC-MS/MS analysis. The series is classed as ADME, organism-based. Conditions: in vivo.
A short description of series [7]: Half life in Sprague-Dawley rat at 2 mg/kg, iv measured upto 48 hrs by LC-MS/MS analysis. Conditions: in vivo. In kind it is ADME, organism-based.
Series [8] is described as follows: Cmax in Sprague-Dawley rat at 10 mg/kg, po measured upto 48 hrs by LC-MS/MS analysis. In kind it is ADME, organism-based. Also on record: route oral, dose 10 mg/kg, time <=48. Conditions: in vivo.
In series [9] the test system is B16-F10. The experiment in a line: Antitumor activity against mouse B16-F10 cells allografted in C57BL/6 mouse assessed as tumor growth inhibition at 50 mg/kg, ip administered daily for 14 days by caliper method (Rvb= 63%). The series is classed as functional. Conditions: 336 h, time 14 day, read-out: TGI.
In series [10] the test system is B16-F10. The series can be described thus: Antitumor activity against mouse B16-F10 cells allografted in C57BL/6 mouse assessed as tumor growth inhibition at 10 mg/kg, ip administered daily for 14 days by caliper method (Rvb= 63%). In kind it is functional. Particulars: 336 h, time 14 day, read-out: TGI.
Series [11] concerns B16-F10. The experiment in a line: Antitumor activity in mouse B16-F10 cells allografted in C57BL/6 mouse assessed as tumor growth inhibition at 50 mg/kg, ip administered for 14 days in presence of 2-(5-chloro-2-(3-cyanobenzyloxy)-4-((2-methylbiphenyl-3-yl)methoxy)benzylamino)-2-methylpropanoic acid by caliper method (Rvb= 63%). In kind it is functional. Conditions: 336 h, time 14 day, read-out: TGI.

A short description of series [12]: Cardiotoxicity in C57BL/6 mouse at 50 mg/kg, IG administered once daily via gavage for 14 days by ECG analysis. In kind it is toxicity, organism-based. Conditions: in vivo, po, 336 h, time 14 day.
Series [13] concerns B16-F10. The experiment in a line: Antitumour activity against mouse B16-F10 cells allografted in C57BL/6 mouse model assessed as increase in CD3 positive/CD4 positive cells in tumor at 50 mg/kg, ip administered for 14 days by flow cytometry analysis (Rvb= 8.73%). Particulars: time 14 day. In kind it is functional.
The subject of series [14] is B16-F10. The series can be described thus: Antitumour activity against mouse B16-F10 cells allografted in C57BL/6 mouse model assessed as increase in CD3 positive/CD4 positive cells in tumor at 50 mg/kg, ip administered for 14 days in presence of 2-(5-chloro-2-(3-cyanobenzyloxy)-4-((2-methylbiphenyl-3-yl)methoxy)benzylamino)-2-methylpropanoic acid by flow cytometry analysis (Rvb= 8.73%). In kind it is functional. Conditions: time 14 day.

The test system of series [15] is B16-F10. The experiment in a line: Antitumour activity against mouse B16-F10 cells allografted in C57BL/6 mouse model assessed as increase in CD3 positive/CD8 positive cells in tumor at 50 mg/kg, ip administered for 14 days in presence of 2-(5-chloro-2-(3-cyanobenzyloxy)-4-((2-methylbiphenyl-3-yl)methoxy)benzylamino)-2-methylpropanoic acid by flow cytometry analysis (Rvb= 6.65%). The series is classed as functional. Particulars: time 14 day. Background: A flow cytometer gives signals particle by particle.

The subject of series [16] is B16-F10. The experiment in a line: Antitumour activity against mouse B16-F10 cells allografted in C57BL/6 mouse model assessed as increase in acetylated alpha tubulin expression level in tumor at 50 mg/kg, ip measured after 14 days by […] based microscopic analysis (Rvb =1.77%). The series is classed as functional. Particulars: time 14 day.
Series [17] in a line: Toxicity in C57BL/6 mouse allografted with B16-F10 cells assessed as body weight loss at 50 mg/kg, ip administered daily for 14 days. The series is classed as organism-based. Conditions: in vivo, 336 h, time 14 day.
A further series deals with Mus musculus. The experiment in a line: Myelosuppression in C57BL/6 mouse assessed as change in lymphocyte count at 50 mg/kg, IG administered once daily via gavage for 14 days. In kind it is toxicity, organism-based. Conditions: in vivo, po, 336 h, time 14 day.
The nature of series [18]: Potency index, ratio of MS-275 IC50 to test compound IC50 for antiproliferative activity against human YCC3/7 cells assessed as cell growth inhibition. The series is classed as functional.
The test system of series [19] is B16-F10. The series can be described thus: Induction of cell cycle arrest in mouse B16-F10 cells assessed as decrease in cells at G1 phase at 0.1 to 1 uM incubated for 48 hrs by RNase/PI staining based flow cytometry analysis. Particulars: dose 0.1-1 µM. In kind it is functional.

Turning to `COc1ccc(-c2ncc(C(=O)NCCCCCCC(=O)NO)s2)c(OC)c1`, the AUC(0-inf) (usually total exposure, with the tail of the curve extrapolated) in series [1] is 319 ng·h/mL. In addition, the IC50 – broadly, the point on the concentration scale where inhibition reaches its midpoint – in series [2] turned out to be 31 nM. Further, in [3], the IC50 at 72 h was determined as 160 nM. Also, the Activity result with B16-F10 [4] was “Dose-Dependent Effect”; in [12] it was “Non-Toxic”; in the series on B16-F10 [13], 8.72%; with B16-F10 [14], 26.3%; in the series on B16-F10 [15], 16.5%; in the series on B16-F10 [16] it was 43.6%. The Activity result (in [17]; with Mus musculus) was “Non-Toxic” each time. Further, the solubility (thermodynamic) (commonly the concentration in solution at equilibrium with solid) at 24 h in [5] amounted to 41.3 µg/mL (≈ 101 µM). Also, in series [6], the MRT last (in general, the average time that molecules of a dose stay in the body) at 48 h turned out to be 7.4 h. In addition, the half-life (in general, the time in which the quantity being followed falls by half) in [7] was 6.2 h. The Cmax (usually the peak of the concentration-time curve) in series [8] is 35 ng/mL. Further, the inhibition in vivo at 50 mg/kg in the series with B16-F10 [9] was found to be 48%; in the series with B16-F10 [11], 58%. In addition, the inhibition in vivo at 10 mg/kg with B16-F10 [10] is 69%. For the same compound, the “Ratio IC50” value in [18] is 6.

For `COc1ccc(-c2ncc(C(=O)NCCCCCCC(=O)NO)[nH]2)c(OC)c1`, the IC50 in series [2] came to 48 nM. The IC50 at 72 h in [3] was 230 nM. Moreover, the outcome in the series with B16-F10 [19] was Active. Moreover, the Activity result with B16-F10 [4] is “Dose-Dependent Effect”.

Values taken from ChEMBL document CHEMBL5042524, “Discovery of Novel Histone Deacetylase 6 (HDAC6) Inhibitors with Enhanced Antitumor Immunity of Anti-PD-L1 Immunotherapy in Melanoma” (J Med Chem, 2022).
